Tests used:
MGM-1 = test: Alternative pathway D synthesis in cells treated with FeSO4, or with Ab with or without Vitamin E (TLC, RIA); type: cell-based, human; conditions: MGM-1, 50 mM Aβ, vs control, p < 0.01
Method: Alternative Pathway: To determine the amount ofD synthesized by the alternative pathway cells were treated as previously described. (15). In brief, cells were washed and oligodendrocytes and astrocytes were incubated with increasing concentrations of FeSO4 in serum free media, with and without SU 10603 (10 mM); neurons were incubated in serum free media containing 5 mM P plus FeSO4 with and without 10 mM SU 10603. After two hours, cells and media were homogenized and extracted as described above. Extracts were run on C 18 TLC plates (Whatman, Clifton, NJ) with a mobile phase of 95% methanol (v/v); radiolabeled standards for P, progesterone, and D were run on each plate, and appropriate steroid fractions were collected for each sample. TLC fractions were extracted with 2 ml diethyl ether (Fluka, New York) and evaporated. TLC extracts were assayed by specific radioimmunoassay (RIA). […]
RIA using antibodies specific for each steroid (ICN Pharmaceuticals, Costa Mesa, CA Mesa) was used to measure P, progesterone and D levels. The data were analyzed using the IBM-PC RIA Data Reduction Program (version 4.1) from Jaffe and Associates (Silver Spring, MD). Levels of β-amyloid species in AD and control brain samples were analyzed using 4G8 (Senetex PLC, Napa, CA), a monoclonal antibody to β-amyloid peptide that recognizes amino acids 17-24. […]

MGM-1 human glioma cells = test: ROS measurement by 2,7-DCF fluorescence; type: cell-based; conditions: MGM-1, 50 mM Aβ, vs control, p < 0.01
Method: β-Amyloid Regulation of the Alternative Pathway: MGM-1 cells were plated on 96 well (~5,000 cells/well, for ROS measurements) or 24 well (~15,000 cells/well, for D measurements) plates (Corning Costar, Acton, MA). At the same time, 1 mg Ab (Ab (1-42), AnaSpec Inc., San Jose, CA) was dissolved in 0.5 ml serum-free media and incubated at 4C for aggregation. 24 hours later, cells were incubated in DMEM with 10% fetal bovine serum and […] or […] and 10 mM Vitamin E (Sigma, St. Louis, MO). Control samples were incubated in DMEM with 10% FBS. Cells were incubated at 37C and 6% CO2 for at least 12 hours and processed for ROS generation (see below) or D synthesis as described above for the alternative experiments.
Treatment media was removed and the cells were washed with PBS. The fluorescent probe 2,7- dichlorofluorescin diacetate (2,7-DCF, Molecular Probes, Inc., Eugene, OR) was used to measure levels of oxidative stress (48). Cells were incubated with […] 2,7-DCF, fluorescence was measured at 485nm/535nm using the Victor^2 Multilabel Counter (EG&G Wallac, Gaithersburg, MD) and values of cellular fluorescence were obtained.

Question: How did the D levels (MGM-1) turn out when “Ab: Ab (1-42), AnaSpec Inc.; β-amyloid, a component of Alzheimer's disease plaques” was run?
Answer: increased D levels significantly

Question: What about the “2,7-DCF fluorescence (ROS)” value (MGM-1 human glioma cells) of the same substance?
Answer: significant increase
